Values of other authors, collected in US6869615B2, “Pharmaceutical formulations containing a non-steroidal antiinflammatory drug and a proton pump inhibitor” (Andrx Labs LLC, priority 2000, dated 2005).

Structure (SMILES) | patients with side effects that require cessation of medication (NSAIDs such as diclofenac) | patients who experience gross bleeding and ulceration (chronic use, Langman et al, Lancet 1994)
O=C(O)Cc1ccccc1Nc1c(Cl)cccc1Cl [diclofenac] | about 20% | 
CN1C(C(=O)Nc2ccccn2)=C(O)c2ccccc2S1(=O)=O [piroxicam] |  | up to 4%
